pIC50: −log10 of the molar value.
How the values were obtained:
A-375 = assay: Cytotoxicity against human A-375 cells assessed as inhibition of cell growth; type: functional, cell-based
M14 [1] = assay: Antiproliferative activity against human M14 cells assessed as reduction cell viability incubated for 48 hrs by MTT assay; type: functional, cell-based; details: M14, 48 h
M14 [2] = assay: Antiproliferative activity against human M14 cells assessed as inhibition of cell growth measured after 48 hrs by SRB assay; type: functional, cell-based; details: M14, 48 h
PC-3 [3] = assay: Cytotoxicity against human PC-3 cells assessed as inhibition of cell growth; type: functional, cell-based
DU-145 [4] = assay: Cytotoxicity against human DU-145 cells assessed as inhibition of cell growth; type: functional, cell-based
GBM528 (human) = assay: Antiproliferative activity against human GBM528 cells assessed as sphere formation inhibition
EKVX = assay: Antiproliferative activity against human EKVX cells assessed as cell growth inhibition incubated for 72 hrs by MTT assay; type: functional, cell-based
NCI-H460 = assay: Antiproliferative activity against human NCI-H460 cells assessed as reduction in cell viability incubated for 24 hrs by MTT assay; type: functional, cell-based; details: NCI-H460, 24 h
A549 = assay: Antiproliferative activity against human A549 cells assessed as reduction in cell viability by MTT assay; type: functional, cell-based
HCT-116 = assay: Antiproliferative activity against human HCT-116 cells assessed as reduction in cell proliferation measured after 72 hrs by MTT assay; type: functional, cell-based; details: HCT-116, 72 h
HCT-8 = assay: Antiproliferative activity against human HCT-8 cells assessed as inhibition of cell growth; type: functional, cell-based
SW-620 = assay: Antiproliferative activity against human SW620 cells assessed as reduction in cell viability incubated for 72 hrs by MTT assay; type: functional, cell-based; details: SW-620, 72 h
[5] = AUC in mouse plasma at 3 mg/kg, iv measured upto 24 hrs by LC-MS/MS analysis; type: ADME, organism-based; set-up: dose 3 mg/kg, time < 24 hrs, route iv; details: in vivo
[6] = Clearance in […] at 3 mg/kg, iv incubated for 24 hrs by LC-MS/MS analysis; type: ADME, organism-based; details: in vivo
[7] = Cmax in […] at 1 mg/kg, iv and measured upto 24 hrs by LC/MS/MS analysis; type: ADME, organism-based; set-up: time < 24 hrs, dose 1 mg/kg, route iv; details: in vivo
[8] = Half life in CD1 mouse at 1 mg/kg, iv by LC-MS/MS analysis; type: ADME, organism-based; details: in vivo
PC-3 [9] = assay: Cytotoxicity against human PC-3 cells assessed as reduction in cell viability incubated for 24 hrs by MTT assay; details: PC-3, 24 h
DU-145 [10] = assay: cells; details: Homo sapiens, DU-145, 24 h
Description: Cytotoxicity against human DU-145 cells assessed as inhibition of cell growth incubated for 24 hrs by MTT assay

NCI-H69 = assay: Antiproliferative activity against human NCI-H69 cells assessed as reduction in cell growth; type: functional, cell-based
PC-3 [11] = assay: Anticancer activity against human PC-3 cells assessed as cell growth inhibition by sulforhodamine B assay; type: functional, cell-based
LNCaP C4-2 [12] = assay: Antiproliferative activity against human LNCaP C4-2 cells assessed as cell growth inhibition; type: functional, cell-based
LNCaP C4-2 [13] = assay: Cytotoxicity against human LNCaP C4-2 cells assessed as cell growth inhibition incubated for 24 hrs by MTT assay; type: functional, cell-based; details: LNCaP C4-2, 24 h
PC-3 [14] = assay: Cytotoxicity against human PC-3 cells assessed as reduction in cell growth incubated for 72 hrs by SRB assay; type: functional, cell-based; details: PC-3, 72 h
MDA-MB-231 = assay: Cytotoxicity against human MDA-MB-231 cells assessed as inhibition of cell growth incubated for 72 hrs by SRB assay; type: functional, cell-based; details: MDA-MB-231, 72 h
HepG2 = assay: Cytotoxicity against human HepG2 cells assessed as reduction in cell viability incubated for 72 hrs by SRB assay; type: functional, cell-based; details: HepG2, 72 h

SMILES: Oc1c(CN2CCCC2)cc(COCc2ccccc2)c2cccnc12
- pIC50 (A-375): 5.80
- pIC50 (M14 [1]): 5.60
- pIC50 (M14 [2]): 5.49
- pIC50 (PC-3 [3]): 6.15
- pIC50 (DU-145 [4]): 5.47

SMILES: N#Cc1c(-c2cc(OCc3ccccc3)cc(OCc3ccccc3)c2)cc(-c2cc(Cl)ccc2O)[nH]c1=O
- pIC50 (GBM528 (human)): 4.51

SMILES: CC[C@@]1(O)C(=O)OCc2c1cc1n(c2=O)Cc2cc3cc4c(cc3nc2-1)OCO4
- pIC50 (EKVX): 8.22
- pIC50 (NCI-H460): 8.52
- pIC50 (A549): 8.05
- pIC50 (HCT-116): 8.30
- pIC50 (HCT-8): 8.30
- pIC50 (SW-620): 8.05
- AUC [5]: 82 ng·h/mL
- clearance [6]: 900 mL/min/kg
- Cmax [7]: 43 ng/mL
- half-life [8]: 1.8 h

SMILES: Cc1ccc(-c2ccc(/C=N/Nc3nc4nonc4nc3Nc3ccc(Br)cc3)o2)cc1Cl
- pIC50 (PC-3 [9]): 5.46
- pIC50 (DU-145 [10]): 5.48

SMILES: CCOC(=O)c1ccc(Nc2nc3nonc3nc2N/N=C/c2c[nH]nc2-c2ccccc2)cc1
- pIC50 (DU-145 [10]): 5.46

SMILES: Cc1cccc(Nc2nc3nonc3nc2N/N=C/c2cc3c(cc2[N+](=O)[O-])OCO3)c1C
- pIC50 (PC-3 [9]): 5.68
- pIC50 (DU-145 [10]): 5.59

SMILES: Cc1cccc(Nc2nc3nonc3nc2N/N=C/c2ccc(-c3cccc(C(=O)O)c3)o2)c1C
- pIC50 (PC-3 [9]): 4.70
- pIC50 (DU-145 [10]): 4.60

SMILES: Cc1cccc(Nc2nc3nonc3nc2N/N=C/c2ccc(-c3ccc(Cl)c([N+](=O)[O-])c3)o2)c1C
- pIC50 (PC-3 [9]): 5.32
- pIC50 (DU-145 [10]): 5.14

SMILES: O=C1N=c2ccc(Nc3nc4nonc4nc3N/N=C/c3ccccc3OCc3ccc(Cl)cc3Cl)cc2=N1
- pIC50 (PC-3 [9]): 4.30
- pIC50 (DU-145 [10]): 4.22

SMILES: Oc1ccc(CCCc2ccc(O)c(O)c2)cc1O
- pIC50 (NCI-H69): < 4.00

SMILES: Oc1ccc(CCCCCc2ccc(O)c(O)c2)cc1O
- pIC50 (NCI-H69): 5.52

SMILES: Nc1nonc1C(=O)N/N=C1\c2ccccc2-c2nc3nonc3nc21
- pIC50 (PC-3 [11]): 5.37
- pIC50 (LNCaP C4-2 [12]): 5.72
- pIC50 (PC-3 [9]): 5.37
- pIC50 (LNCaP C4-2 [13]): 5.72

SMILES: N#Cc1c(-c2ccc(F)cc2)cc(-c2ccc(OCc3ccc(F)cc3)cc2)[nH]c1=S
- pIC50 (PC-3 [14]): 4.64
- pIC50 (MDA-MB-231): 4.64
- pIC50 (HepG2): 4.64

SMILES: COc1ccc(-c2cc(-c3ccc(OCc4ccc(F)cc4)cc3)[nH]c(=O)c2C#N)cc1
- pIC50 (PC-3 [14]): 5.35
- pIC50 (MDA-MB-231): 5.44
- pIC50 (HepG2): 5.22

SMILES: N#Cc1c(-c2ccc(Br)cc2)cc(-c2ccc(OCc3ccc(F)cc3)cc2)nc1N
- pIC50 (PC-3 [14]): 4.52
- pIC50 (MDA-MB-231): 4.52
- pIC50 (HepG2): 4.52

SMILES: COc1ccc(-c2cc(-c3ccc(OCc4ccc(F)cc4)cc3)[nH]c(=S)c2C#N)cc1
- pIC50 (PC-3 [14]): 4.64
- pIC50 (MDA-MB-231): 4.64
- pIC50 (HepG2): 4.64

Reference: ChEMBL document CHEMBL5375997, “Small Molecule Inhibitors Targeting the "Undruggable" Survivin: The Past, Present, and Future from a Medicinal Chemist's Perspective” (J Med Chem, 2023)
